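Growth conditions: 96-well plates. Treatment: test compound, 48 hours, 5 concentrations. Analysis: linear interpolation between bracketing concentrations; unreached endpoints set to highest concentration. GI50 marks 50% less growth.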 The source made the active and inactive calls. Rule as the data show it: active = GI50 up to about 1.1 µM and inactive = higher.
How the values were obtained:
Test in all cases: inhibition of tumour cell growth, NCI panel, 48 h
NCI-H460 = system: NCI-H460
MOLT-4 = system: MOLT-4
HCT-116 = system: HCT-116
HCC 2998 = system: HCC 2998
M19-MEL = system: M19-MEL
KM-20L2 = system: KM-20L2
UO-31 = system: UO-31
SK-MEL-28 = system: SK-MEL-28
HT-29 = system: HT-29
LOX IMVI = system: LOX IMVI
OVCAR-8 = system: OVCAR-8
NCI-H23 = system: NCI-H23
NCI-H522 = system: NCI-H522
A549 = system: A549
COLO 205 = system: COLO 205
SF-268 = system: SF-268
CCRF-CEM = system: CCRF-CEM
SW-620 = system: SW-620
SK-MEL-5 = system: SK-MEL-5
K562 = system: K562

Measured: GI50

NNc1nnc(-c2ccccc2)nc1Cc1ccccc1
inactive: NCI-H460 4.17 µM | MOLT-4 3.19 µM | HCT-116 7.18 µM | HCC 2998 3.39 µM | M19-MEL 7.41 µM | KM-20L2 3.84 µM | UO-31 3.81 µM | SK-MEL-28 7.71 µM | HT-29 8.3 µM | LOX IMVI 3.56 µM | OVCAR-8 4.52 µM | NCI-H23 6.03 µM | NCI-H522 5.4 µM | A549 6.41 µM | COLO 205 7.53 µM | SF-268 3.64 µM | CCRF-CEM 2.64 µM | SW-620 5.13 µM | SK-MEL-5 12.3 µM | K562 5.65 µM

— ChEMBL document CHEMBL1201862, “PubChem BioAssay data set” (2004)
